Experimental data from the supplement of paper PMC13380429.

What was measured:
Conditions in all cases: 72 h
[1] = tested on: U2OS; experiment: relative viability EC50 (midpoint between 100% and the lowest measured viability); higher = less toxic
[2] = tested on: Vero E6; experiment: as above
[3] = tested on: Caco-2; experiment: as above
[4] = tested on: HepG2; experiment: as above
[5] = tested on: Calu-3; experiment: as above
[6] = tested on: U2OS; experiment: cell viability relative to DMSO; higher = less toxic
[7] = tested on: Vero E6; experiment: as above
[8] = tested on: Caco-2; experiment: as above
[9] = tested on: HepG2; experiment: as above
[10] = tested on: Calu-3; experiment: as above
[11] = tested on: U2OS; experiment: drug sensitivity score (DSS) for viability; higher = more toxic; extreme values may be limits of the assay
[12] = tested on: Vero E6; experiment: as above
[13] = tested on: Caco-2; experiment: as above
[14] = tested on: HepG2; experiment: as above
[15] = tested on: Calu-3; experiment: as above

Structure (SMILES) | relative viability EC50 [1] [µM] | relative viability EC50 [2] [µM] | relative viability EC50 [3] [µM] | relative viability EC50 [4] [µM] | relative viability EC50 [5] [µM] | cell viability ([6]; 1 nM) [%] | cell viability ([6]; 10 nM) [%] | cell viability ([6]; 100 nM) [%] | cell viability ([6]; 1000 nM) [%] | cell viability ([6]; 10000 nM) [%] | cell viability ([7]; 1 nM) [%] | cell viability ([7]; 10 nM) [%] | cell viability ([7]; 100 nM) [%] | cell viability ([7]; 1000 nM) [%] | cell viability ([7]; 10000 nM) [%] | cell viability ([8]; 1 nM) [%] | cell viability ([8]; 10 nM) [%] | cell viability ([8]; 100 nM) [%] | cell viability ([8]; 1000 nM) [%] | cell viability ([8]; 10000 nM) [%] | cell viability ([9]; 1 nM) [%] | cell viability ([9]; 10 nM) [%] | cell viability ([9]; 100 nM) [%] | cell viability ([9]; 1000 nM) [%] | cell viability ([9]; 10000 nM) [%] | cell viability ([10]; 1 nM) [%] | cell viability ([10]; 10 nM) [%] | cell viability ([10]; 100 nM) [%] | cell viability ([10]; 1000 nM) [%] | cell viability ([10]; 10000 nM) [%] | drug sensitivity score [11] | drug sensitivity score [12] | drug sensitivity score [13] | drug sensitivity score [14] | drug sensitivity score [15]
Cc1ncc(COP(=O)([O-])[O-])c(CN(CCN(CC(=O)O)Cc2c(COP(=O)([O-])O)cnc(C)c2O)CC(=O)O)c1O.[Mn].[Na+].[Na+].[Na+] [Mangafodipir (trisodium)] | > 10 | > 10 | > 10 | > 10 | > 10 | 95.1 | 100 | 94.7 | 93.4 | 101 | 111 | 99.7 | 107 | 97 | 99.2 | 95.1 | 99.5 | 94.5 | 108 | 135 | 110 | 89.4 | 105 | 101 | 98.4 | 91.5 | 107 | 104 | 87.6 | 103 | 0 | 0 | 0 | 0 | 0
CN(C(=O)c1ccc(F)cc1C(F)(F)F)C1CCN(c2nnc(-c3ccnn3C)c3ccccc23)CC1 [taladegib] | > 10 | > 10 | > 10 | > 10 | > 10 | 94.9 | 101 | 93 | 101 | 95.6 | 106 | 99.5 | 102 | 90.9 | 91.4 | 96.9 | 92.2 | 87.7 | 106 | 92.8 | 120 | 113 | 111 | 93.5 | 93.2 | 93.1 | 93.7 | 92.8 | 109 | 99.4 | 0 | 0 | 0 | 0 | 0
N#Cc1cccc(-c2c[nH]c3ncnc(N4CCOCC4)c23)c1 | > 10 | > 10 | > 10 | > 10 | > 10 | 106 | 99.2 | 102 | 98.5 | 105 | 98.1 | 96 | 98.9 | 97.7 | 95.9 | 104 | 98.2 | 105 | 107 | 118 | 89.8 | 99.8 | 102 | 105 | 106 | 99 | 104 | 103 | 99.6 | 115 | 0 | 0 | 0 | 0 | 0
CN1c2c([nH]c(N)nc2=O)NC[C@@H]1CNc1ccc(C(=O)N[C@@H](CCC(=O)O)C(=O)O)cc1 [metafolin] | > 10 | > 10 | > 10 | > 10 | > 10 | 94.9 | 100 | 92.5 | 105 | 101 | 96.1 | 91.6 | 96.3 | 83.2 | 104 | 95.4 | 90.3 | 85.3 | 98.1 | 102 | 102 | 89.8 | 105 | 110 | 108 | 91.1 | 106 | 105 | 96.5 | 96.9 | 0 | 0 | 0 | 0 | 0
C[N+]1(C)CCc2cc3c(cc2[C@H]1[C@@H]1OC(=O)c2c1ccc1c2OCO1)OCO3 [bicuculline-methochloride-(-)] | > 10 | > 10 | > 10 | > 10 | > 10 | 95.1 | 99.9 | 99.2 | 98.9 | 100 | 98.6 | 97 | 99.2 | 103 | 100 | 101 | 118 | 98 | 81.9 | 97.3 | 101 | 98.7 | 93.9 | 92.8 | 108 | 89 | 104 | 85 | 88 | 110 | 0 | 0 | 2.5 | 0 | 0
O=C(O)Cc1ccc(OCCNC[C@H](O)c2ccccc2)cc1 [ZD-2079] | > 10 | > 10 | > 10 | > 10 | > 10 | 102 | 94.8 | 107 | 98.5 | 104 | 104 | 100 | 98.8 | 102 | 100 | 92.1 | 102 | 104 | 99.3 | 95 | 109 | 110 | 107 | 101 | 94.3 | 98.5 | 92.7 | 105 | 98 | 96.2 | 0 | 0 | 0 | 0 | 0
C/C(=C\c1ccc(C(=O)O)cc1)c1ccc2c(c1)C(C)(C)CCC2(C)C [TTNPB] | > 10 | > 10 | > 10 | > 10 | > 10 | 99.3 | 99.2 | 94.3 | 93.2 | 92.5 | 94.7 | 102 | 98.3 | 97.9 | 102 | 98.1 | 95.1 | 95 | 95.3 | 91.9 | 94.2 | 106 | 108 | 100 | 108 | 95 | 95.6 | 84.3 | 81.7 | 77.2 | 0 | 0 | 0 | 0 | 3.9
CN1C(=O)N[C@H](Cc2c[nH]c3c(Cl)cccc23)C1=O [necrostatin-2] | > 10 | > 10 | > 10 | > 10 | > 10 | 103 | 109 | 105 | 107 | 95.1 | 104 | 102 | 103 | 99.1 | 97.8 | 99 | 112 | 99.4 | 108 | 102 | 112 | 99.3 | 95.3 | 91.3 | 108 | 97.1 | 110 | 93.9 | 96.9 | 90.4 | 0 | 0 | 0 | 0 | 0
O=c1[nH]c2ccccc2c(=O)n1CCCN1CCN(c2ccccc2)CC1 [pelanserin] | > 10 | > 10 | > 10 | > 10 | > 10 | 97 | 104 | 95.6 | 95.2 | 94.8 | 104 | 105 | 102 | 105 | 95.5 | 101 | 102 | 94 | 103 | 91.7 | 91.1 | 93 | 95.7 | 107 | 93.6 | 94.5 | 96.2 | 103 | 102 | 116 | 0 | 0 | 0 | 0 | 0
CC(C)(C)NC(=O)N[C@H](C(=O)N1C[C@H]2[C@@H]([C@H]1C(=O)NC(CC1CCC1)C(=O)C(N)=O)C2(C)C)C(C)(C)C (stereo not given in full) [Boceprevir] | > 10 | > 10 | > 10 | > 10 | > 10 | 102 | 93.7 | 100 | 96.1 | 91.6 | 102 | 100 | 102 | 92.7 | 99.9 | 103 | 94.4 | 108 | 92.5 | 105 | 102 | 102 | 95.6 | 100 | 105 | 102 | 95.1 | 95.7 | 100 | 102 | 0 | 0 | 0 | 0 | 0
O=P(O)(O)C(O)(Cn1ccnc1)P(=O)(O)O [zoledronic-acid] | > 10 | > 10 | > 10 | > 10 | > 10 | 96.5 | 96.2 | 100 | 99.3 | 97.2 | 99.7 | 104 | 100 | 98.9 | 99.3 | 98.2 | 95.1 | 96.8 | 93.2 | 91.6 | 101 | 98.7 | 95.2 | 97.7 | 94.1 | 110 | 100 | 91.9 | 93.4 | 97.7 | 0 | 0 | 0 | 0 | 0
CCCn1c(=O)c2[nH]cnc2n(-c2ccc(Cl)cc2)c1=O [arofylline] | > 10 | > 10 | > 10 | > 10 | > 10 | 103 | 99.1 | 102 | 96.8 | 98.9 | 108 | 108 | 101 | 98.3 | 96 | 87.3 | 97.6 | 94.4 | 87.9 | 95.5 | 104 | 102 | 99.1 | 100 | 101 | 97.7 | 95.4 | 103 | 96.8 | 92.2 | 0 | 0 | 0 | 0 | 0
Cc1c(C)c2c(c(C)c1O)CCC(C)(C(=O)O)O2 (stereo not given) [trolox] | > 10 | > 10 | > 10 | > 10 | > 10 | 104 | 95.6 | 105 | 97 | 103 | 94.7 | 105 | 102 | 95.9 | 77.9 | 106 | 103 | 88.5 | 93.3 | 90.9 | 96.8 | 90.2 | 92.6 | 87.6 | 98.8 | 105 | 105 | 98.1 | 106 | 104 | 0 | 1.3 | 0.8 | 0 | 0
NC(=O)c1cccc(N)c1 [3-amino-benzamide] | > 10 | > 10 | > 10 | > 10 | > 10 | 99.8 | 106 | 98.3 | 104 | 98.9 | 95.7 | 102 | 102 | 102 | 103 | 98.4 | 96.2 | 93.3 | 89 | 96.8 | 104 | 81.8 | 107 | 101 | 99.8 | 106 | 111 | 102 | 103 | 97.2 | 0 | 0 | 0 | 0 | 0
